Results on one molecule are retold here after ChEMBL document CHEMBL3639062, “Triazolopyridazines as PAR1 inhibitors, production thereof, and use as medicaments” (2015).

pIC50: −log10 of the molar value.

In the assay the target is T1, Proteinase-activated receptor 1 (Homo sapiens, UniProt P25116).
T1 sequence (P25116 whole entry): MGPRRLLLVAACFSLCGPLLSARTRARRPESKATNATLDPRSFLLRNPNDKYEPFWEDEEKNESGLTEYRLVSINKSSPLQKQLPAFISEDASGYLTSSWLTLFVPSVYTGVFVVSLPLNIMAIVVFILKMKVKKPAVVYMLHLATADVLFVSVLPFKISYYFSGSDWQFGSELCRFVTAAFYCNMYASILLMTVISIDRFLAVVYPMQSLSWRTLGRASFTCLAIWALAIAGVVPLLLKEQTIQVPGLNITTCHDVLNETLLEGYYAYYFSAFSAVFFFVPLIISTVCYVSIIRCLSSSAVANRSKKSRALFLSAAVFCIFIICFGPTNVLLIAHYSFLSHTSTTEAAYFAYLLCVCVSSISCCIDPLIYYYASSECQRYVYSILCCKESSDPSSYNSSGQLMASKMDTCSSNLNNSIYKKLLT
Put plainly: Binding Assay: The synthesized substances were examined in a PAR1 binding test. This tested whether the substances can inhibit the binding of a radioactively labeled PAR1 agonist known from the literature at the PAR1 receptor (Ho-Sam Ahn, Mol Pharm, 51:350-356, 1997). The human PAR1 receptor was expressed transiently in High Five insect cells. From these cells, after 48 hours, a membrane preparation was produced by standard methods, aliquoted into 10 mM Tris-HCl; 0.3 mM EDTA; 1 mM EGTA; 250 mM sucrose pH 7.5, and stored at -80 C.The substances were preincubated with the membrane at room temperature for 15 minutes, then the radioligand (ALA-(para-F-Phe)-Arg-ChA-homoArg-(3,4-3H-Tyr)-NH2; approx. 40 Ci/mMol) was added. The end concentration of the radioligand in the test buffer (50 mM Tris-HCl; 10 mM MgCl2; 1 mM EGTA; 0.1% BSA; 2% DMSO) was 20 nM, that of the membrane 1 mg/ml. After an incubation time of 60 minutes, 25 uL of the mixture were transferred to a 96-well MultiScreenHTS FB.

In the case of `CCC(CC)Oc1nn2c(=N)n(CC(=O)c3cc(OC)cc(C(C)(C)C)c3)nc2cc1C`, the pIC50 was 6.02.
